Results: patent publication US6514959B2 (priority 1994, dated 2003)

Test system: Plasmopara viticola
Assay: Action against Plasmopara viticola on vines (preventive leaf spray, Colby evaluation)
Assay type: in vivo
Conditions: for O Observed action: evaluation after 7 days
Description: Fungicides have a synergistic effect whenever the fungicidal action of the active ingredient combination is greater than the sum of the actions of the active ingredients when applied individually.
The action E to be expected for a given active ingredient combination, for example of two fungicides, obeys the so-called COLBY formula and can be calculated as follows (COLBY, L. R. “Calculating synergistic and antagonistic responses of herbicide combinations”. Weeds 15, pages 20-22, 1967) (LIMPEL et al., […] “Weeds control by . . . certain combinations”. Proc. NEWCL, Vol. 16, pp. 48-53):
(mg a.i./liter=milligrams of active ingredient per liter or a multiple thereof) X=% action by fungicide I at p mg a.i./liter
Y=% action by fungicide II at q mg a.i./liter
E=the expected action of fungicides I+II at a rate of application of p+q mg a.i./liter (additive action), then according to Colby: [formula]
If the action (O) actually observed is greater than the expected action, then the action of the combination is superadditive, i.e. there is a synergistic effect.
1) Action Against Plasmopara viticola on Vines
Small vine plants of the variety “Gutedel” are each grown in a plant-pot (diameter=6 cm) under greenhouse conditions and are sprayed in the two-leaf stage with an active ingredient mixture prepared from an emulsifiable concentrate. The following concentrations of active ingredient are each applied to four plants: […]
metalaxyl racemate: 2 mg and 6 mg a.i./liter;
R-metalaxyl (100%): 0.06 mg and 0.6 mg a.i./liter; mancozeb: 2 mg and 6 mg a.i./liter.
These dilutions are prepared in demineralised water immediately before the leaves are sprayed. In order to eliminate the effect of the gas phase of the metalaxyl in the vicinity, all the plants are separated from one another laterally by means of transparent plastics films and are kept in the dark for one day at 20-22° C. and about 100% relative humidity.
The entire surface of the leaves of the plants is then uniformly sprayed to drip point with a freshly prepared sporangia suspension (120 000/ml) of a strain of Plasmopara viticola that is sensitive to metalaxyl. The plants are then kept at 20-22° C. and about 100% relative humidity for 7 days under artificial daylight of 16 hours' duration. Evaluation of the infestation is then carried out. The Tables show in each case the average of four parallel sprayings. The expected action in the case of mixtures is calculated according to COLBY.
Level of action of racemic metalaxyl and R-metalaxyl in admixture with residual component mancozeb

[1] = single active ingredient 2 mg a.i./l, vines Gutedel, infection 1 day after spraying, average of four
[2] = single active ingredient 6 mg a.i./l, vines

Compound | improvement of action when the R-enantiomer is used instead of racemic metalaxyl (in admixture with 2 mg or 6 mg of mancozeb, 0.06 mg R-metalaxyl corresponds to 2 mg racemic metalaxyl) | O Observed action (single active ingredient 0.06 mg a.i./l, vines) [%] | O Observed action (single active ingredient 0.6 mg a.i./l, vines) [%] | O Observed action [1] [%] | O Observed action [2] [%]
COCC(=O)N(c1c(C)cccc1C)[C@H](C)C(=O)OC (single isomer, unassigned) [R-enantiomer of metalaxyl, R-metalaxyl] | about 30 fold | 12 | 18 |  | 
mancozeb |  |  |  | 0 | 20
COCC(=O)N(c1c(C)cccc1C)C(C)C(=O)OC (stereo not shown) [Metalaxyl, metalaxyl] |  |  |  | 12 | 24
